Measurements taken from patent US8937076B2, “Crystalline form of entecavir, its preparation and the pharmaceutical composition and uses thereof” (Zhejiang Medicine Co., Ltd. Xinchang Pharaceutical Factory, priority 2007, dated 2015).

Assay: Solubility at room temperature
Type: physicochemical

With C=C1[C@H](CO)[C@@H](O)C[C@@H]1n1cnc2c(=O)[nH]c(N)nc21 [crystalline form of entecavir] the “Solubility in N,N-dimethylformamide” value (N. N-dimethylformamide) was “sparingly soluble”, the “Solubility in dimethyl sulfoxide” value (dimethyl sulfoxide) was “soluble” and the Solubility in ethanol (ethanol) was “slightly soluble”. For the same compound, the Solubility in water (water) was “insoluble”.
